# From patent US20200397332A1, “NON-INVASIVE METHOD AND DEVICE FOR DETERMINING DRUG CONCENTRATIONS IN BLOOD” (priority 2019, published 2020)
# What was measured:
# [1] = Din=500 mg acetaminophen; taken from known drug data; cited from earlier work
# clinical [2] = details: human, in vivo, po
# Procedure: The Tmax can be identified from this dependence.
# FIG. 11 is illustrative of the relative change in charge of the ions inside the arterial blood stream vs time after ingesting 500 mg of acetaminophen. […] The Tmax can be identified from this graph, and is detected as being approximately 30 min.
# The initial dosage is Din is ˜500 mg of acetaminophen. The maximum drug concentration in arterial blood stream is 60 mg/L at Din=500 mg ([…]) and Tmax˜30 min from the measurements from the GM sensor.
# Vs. The next step is to calculate (Vs0−Vs)0.
# [3] = caffeine: one cup of coffee (100 mg caffeine); alcohol: no sign of alcohol in blood; cited from earlier work
# [4] = Din=50 mg caffeine; taken from known drug data; cited from earlier work
# clinical [5] = details: human, in vivo, po; remark: listed apart in the source
# Source text: FIG. 6 is illustrative of the GM magnetic signal vs time at different pressures by adjusting the pressure applied by the pressure cuff 12 on the arm of the patient. Initially, the cuff pressure is zero and the GM signal is flat. After around 10 seconds, the cuff pressure is increased and after 20 seconds, the cuff pressure reaches approximately 120 mm Hg. […] The GM signal is almost flat from 20 seconds to 60 seconds because the flow of blood through the blood vessel is stopped. When the cuff pressure was released quickly at about 60 seconds, the GM signal returned to the level similar to the initial measurement. […] At the pressure of 120 mm Hg or greater there is, no arterial blood flow and no electrical current. The difference of two levels in the beginning and around 60 seconds gives the absolute value of the magnetic field which is detected by the GM sensor. […]
# Basic data for the detected drugs includes the initial dosages of the drug Din which depend on the maximum concentration Cmax in blood at a certain time Tmax. […] The absolute value of the drug concentration is determined based on the measured signal Vs and time Tmax at which the concentration of drug is detected at a maximum value in the blood stream.
# The signal Vs was measured at different times after ingestion of the caffeine to verify the time dependence of the drug concentration in blood. […]
Tmax (clinical [2]) [h],Compound,"Cmax, maximum drug concentration in arterial blood stream [1] [µg/mL]",time after which the level in blood has declined to zero [3],"Cmax, maximum drug concentration in the arterial blood stream [4]",Tmax (clinical [5]) [h]
~0.5,CC(=O)Nc1ccc(O)cc1 [acetaminophen],60,,,
,CCO [alcohol],,about 12 hours,,
,Cn1c(=O)c2c(ncn2C)n(C)c1=O [caffeine],,about 4 hours,about 1 mg/L,~2
